# Values quoted from earlier work as cited in patent publication US12202853B2, “Epoxide polyene amphoteric macrolide and process for purifying natamycin” (DSM IP ASSETS B.V., priority 2018, dated 2025).
# Where two headings read alike, the source gives them in different places.
substance,measurement,setting,value
Natamycin,solubility of natamycin in water,neutral pH,around 40 mg/L
same,solubility of natamycin in water,"neutral pH values, also printed as 40 ppm",around 0.04 g/L
